Measurements: the NIST ThermoML archive (doi:10.1016/j.jct.2012.02.007)
± gives the expanded uncertainty stated by the source.

How the values were obtained:
[1] = osmotic coefficient (dimensionless); mn = molality of the nth substance listed, in mol/kg; details: 323.15 K, Liquid, Vapor Pressure Osmometer
[2] = mn = molality of the nth substance listed, in mol/kg; details: 101.3 kPa, Liquid; for speed of sound: Sing-around technique in a fixed-path interferometer; for mass density: Vibrating tube method

CCCCn1cc[n+](C)c1.N#CN=C=[N-] [1-butyl-3-methylimidazolium dicyanamide] + CCCO
osmotic coefficient ([1]; m1 = 0.0543): 0.973 ± 0.012 | osmotic coefficient ([1]; m1 = 0.0899): 0.898 ± 0.013 | osmotic coefficient ([1]; m1 = 0.1032): 0.871 ± 0.013 | osmotic coefficient ([1]; m1 = 0.2057): 0.816 ± 0.014 | osmotic coefficient ([1]; m1 = 0.3018): 0.78 ± 0.014 | osmotic coefficient ([1]; m1 = 0.4097): 0.748 ± 0.015 | osmotic coefficient ([1]; m1 = 0.5035): 0.737 ± 0.015 | osmotic coefficient ([1]; m1 = 0.8276): 0.714 ± 0.016 | osmotic coefficient ([1]; m1 = 1.24): 0.691 ± 0.016 | osmotic coefficient ([1]; m1 = 1.64): 0.668 ± 0.017 | osmotic coefficient ([1]; m1 = 2.049): 0.646 ± 0.017 | osmotic coefficient ([1]; m1 = 2.45): 0.634 ± 0.018 | osmotic coefficient ([1]; m1 = 2.837): 0.616 ± 0.018 | osmotic coefficient ([1]; m1 = 3.324): 0.599 ± 0.019 | speed of sound ([2]; 293.15 K, m1 = 0.0646): 1229.5 ± 0.8 m/s | speed of sound ([2]; 293.15 K, m1 = 0.1004): 1232.4 ± 0.8 m/s | speed of sound ([2]; 293.15 K, m1 = 0.154): 1236.7 ± 0.9 m/s | speed of sound ([2]; 293.15 K, m1 = 0.2041): 1240.4 ± 0.9 m/s | speed of sound ([2]; 293.15 K, m1 = 0.2521): 1243.9 ± 0.9 m/s | speed of sound ([2]; 293.15 K, m1 = 0.5071): 1261.1 ± 0.9 m/s | speed of sound ([2]; 293.15 K, m1 = 0.7606): 1277.2 ± 0.9 m/s | speed of sound ([2]; 293.15 K, m1 = 1.012): 1292.2 ± 1 m/s | speed of sound ([2]; 293.15 K, m1 = 1.263): 1306.2 ± 1 m/s | speed of sound ([2]; 293.15 K, m1 = 1.512): 1319.4 ± 1 m/s | speed of sound ([2]; 293.15 K, m1 = 1.765): 1331.8 ± 1.1 m/s | speed of sound ([2]; 293.15 K, m1 = 2.017): 1343.6 ± 1.1 m/s | speed of sound ([2]; 293.15 K, m1 = 2.52): 1365.8 ± 1.1 m/s | speed of sound ([2]; 293.15 K, m1 = 2.826): 1377.8 ± 1.2 m/s | speed of sound ([2]; 293.15 K, m1 = 3.488): 1401.8 ± 1.3 m/s | mass density ([2]; 293.15 K, m1 = 0.0646): 807.07 ± 0.12 kg/m3 | mass density ([2]; 293.15 K, m1 = 0.1004): 808.7 ± 0.12 kg/m3 | mass density ([2]; 293.15 K, m1 = 0.154): 811.09 ± 0.12 kg/m3 | mass density ([2]; 293.15 K, m1 = 0.2041): 813.27 ± 0.12 kg/m3 | mass density ([2]; 293.15 K, m1 = 0.2521): 815.21 ± 0.12 kg/m3 | mass density ([2]; 293.15 K, m1 = 0.5071): 825.41 ± 0.12 kg/m3 | mass density ([2]; 293.15 K, m1 = 0.7606): 834.72 ± 0.12 kg/m3 | mass density ([2]; 293.15 K, m1 = 1.012): 843.22 ± 0.12 kg/m3 | mass density ([2]; 293.15 K, m1 = 1.263): 851.11 ± 0.13 kg/m3 | mass density ([2]; 293.15 K, m1 = 1.512): 858.43 ± 0.13 kg/m3 | mass density ([2]; 293.15 K, m1 = 1.765): 865.25 ± 0.14 kg/m3 | mass density ([2]; 293.15 K, m1 = 2.017): 871.65 ± 0.15 kg/m3 | mass density ([2]; 293.15 K, m1 = 2.52): 883.38 ± 0.16 kg/m3 | mass density ([2]; 293.15 K, m1 = 2.826): 889.83 ± 0.17 kg/m3 | mass density ([2]; 293.15 K, m1 = 3.488): 902.23 ± 0.2 kg/m3 | speed of sound ([2]; 308.15 K, m1 = 0.0646): 1178.7 ± 0.8 m/s | speed of sound ([2]; 308.15 K, m1 = 0.1004): 1181.7 ± 0.8 m/s | speed of sound ([2]; 308.15 K, m1 = 0.154): 1186.2 ± 0.8 m/s | speed of sound ([2]; 308.15 K, m1 = 0.2041): 1190 ± 0.8 m/s | speed of sound ([2]; 308.15 K, m1 = 0.2521): 1193.4 ± 0.9 m/s | speed of sound ([2]; 308.15 K, m1 = 0.5071): 1211.6 ± 0.9 m/s | speed of sound ([2]; 308.15 K, m1 = 0.7606): 1228.3 ± 0.9 m/s | speed of sound ([2]; 308.15 K, m1 = 1.012): 1243.8 ± 0.9 m/s | speed of sound ([2]; 308.15 K, m1 = 1.263): 1258.2 ± 1 m/s | speed of sound ([2]; 308.15 K, m1 = 1.512): 1271.9 ± 1 m/s | speed of sound ([2]; 308.15 K, m1 = 1.765): 1284.7 ± 1 m/s | speed of sound ([2]; 308.15 K, m1 = 2.017): 1297 ± 1.1 m/s | speed of sound ([2]; 308.15 K, m1 = 2.52): 1319.7 ± 1.1 m/s | speed of sound ([2]; 308.15 K, m1 = 2.826): 1332.3 ± 1.2 m/s | speed of sound ([2]; 308.15 K, m1 = 3.488): 1357.1 ± 1.2 m/s | mass density ([2]; 308.15 K, m1 = 0.0646): 795.05 ± 0.12 kg/m3 | mass density ([2]; 308.15 K, m1 = 0.1004): 796.71 ± 0.12 kg/m3 | mass density ([2]; 308.15 K, m1 = 0.154): 799.15 ± 0.12 kg/m3 | mass density ([2]; 308.15 K, m1 = 0.2041): 801.36 ± 0.12 kg/m3 | mass density ([2]; 308.15 K, m1 = 0.2521): 803.31 ± 0.12 kg/m3 | mass density ([2]; 308.15 K, m1 = 0.5071): 813.67 ± 0.12 kg/m3 | mass density ([2]; 308.15 K, m1 = 0.7606): 823.09 ± 0.12 kg/m3 | mass density ([2]; 308.15 K, m1 = 1.012): 831.69 ± 0.13 kg/m3 | mass density ([2]; 308.15 K, m1 = 1.263): 839.67 ± 0.13 kg/m3 | mass density ([2]; 308.15 K, m1 = 1.512): 847.07 ± 0.14 kg/m3 | mass density ([2]; 308.15 K, m1 = 1.765): 853.97 ± 0.14 kg/m3 | mass density ([2]; 308.15 K, m1 = 2.017): 860.45 ± 0.15 kg/m3 | mass density ([2]; 308.15 K, m1 = 2.52): 872.29 ± 0.17 kg/m3 | mass density ([2]; 308.15 K, m1 = 2.826): 878.84 ± 0.18 kg/m3 | mass density ([2]; 308.15 K, m1 = 3.488): 891.37 ± 0.2 kg/m3 | speed of sound ([2]; 323.15 K, m1 = 0.0646): 1128.5 ± 0.8 m/s | speed of sound ([2]; 323.15 K, m1 = 0.1004): 1131.7 ± 0.8 m/s | speed of sound ([2]; 323.15 K, m1 = 0.154): 1136.4 ± 0.8 m/s | speed of sound ([2]; 323.15 K, m1 = 0.2041): 1140.4 ± 0.8 m/s | speed of sound ([2]; 323.15 K, m1 = 0.2521): 1143.8 ± 0.8 m/s | speed of sound ([2]; 323.15 K, m1 = 0.5071): 1162.8 ± 0.9 m/s | speed of sound ([2]; 323.15 K, m1 = 0.7606): 1180.1 ± 0.9 m/s | speed of sound ([2]; 323.15 K, m1 = 1.012): 1196.2 ± 0.9 m/s | speed of sound ([2]; 323.15 K, m1 = 1.263): 1211.2 ± 1 m/s | speed of sound ([2]; 323.15 K, m1 = 1.512): 1225.3 ± 1 m/s | speed of sound ([2]; 323.15 K, m1 = 1.765): 1238.6 ± 1 m/s | speed of sound ([2]; 323.15 K, m1 = 2.017): 1251.3 ± 1.1 m/s | speed of sound ([2]; 323.15 K, m1 = 2.52): 1274.6 ± 1.1 m/s | speed of sound ([2]; 323.15 K, m1 = 2.826): 1287.8 ± 1.2 m/s | speed of sound ([2]; 323.15 K, m1 = 3.488): 1313.3 ± 1.2 m/s | mass density ([2]; 323.15 K, m1 = 0.0646): 782.64 ± 0.12 kg/m3 | mass density ([2]; 323.15 K, m1 = 0.1004): 784.35 ± 0.12 kg/m3 | mass density ([2]; 323.15 K, m1 = 0.154): 786.83 ± 0.12 kg/m3 | mass density ([2]; 323.15 K, m1 = 0.2041): 789.09 ± 0.12 kg/m3 | mass density ([2]; 323.15 K, m1 = 0.2521): 791.08 ± 0.12 kg/m3 | mass density ([2]; 323.15 K, m1 = 0.5071): 801.63 ± 0.13 kg/m3 | mass density ([2]; 323.15 K, m1 = 0.7606): 811.21 ± 0.13 kg/m3 | mass density ([2]; 323.15 K, m1 = 1.012): 819.94 ± 0.13 kg/m3 | mass density ([2]; 323.15 K, m1 = 1.263): 828.03 ± 0.13 kg/m3 | mass density ([2]; 323.15 K, m1 = 1.512): 835.54 ± 0.14 kg/m3 | mass density ([2]; 323.15 K, m1 = 1.765): 842.54 ± 0.15 kg/m3 | mass density ([2]; 323.15 K, m1 = 2.017): 849.11 ± 0.15 kg/m3 | mass density ([2]; 323.15 K, m1 = 2.52): 861.11 ± 0.17 kg/m3 | mass density ([2]; 323.15 K, m1 = 2.826): 867.75 ± 0.18 kg/m3 | mass density ([2]; 323.15 K, m1 = 3.488): 880.45 ± 0.2 kg/m3
